Structures can show the parent of a compound that is named as a salt.
Molecular target: adenosine A2A receptor (Homo sapiens, UniProt P29274)
Test: adenosine A2A receptor agonist assay, method of Murphree et al, Molecular Pharmacology 61, 455-462 (2002)
Assay type: binding
Conditions: method of L. J. Murphree et al
Text: Compounds of formula I and their pharmaceutically acceptable salts are useful as pharmaceuticals. In particular, they activate the adenosine A2A receptor, i.e. they act as A2A receptor agonists.

adenosine A2A receptor, sequence (P29274 whole entry): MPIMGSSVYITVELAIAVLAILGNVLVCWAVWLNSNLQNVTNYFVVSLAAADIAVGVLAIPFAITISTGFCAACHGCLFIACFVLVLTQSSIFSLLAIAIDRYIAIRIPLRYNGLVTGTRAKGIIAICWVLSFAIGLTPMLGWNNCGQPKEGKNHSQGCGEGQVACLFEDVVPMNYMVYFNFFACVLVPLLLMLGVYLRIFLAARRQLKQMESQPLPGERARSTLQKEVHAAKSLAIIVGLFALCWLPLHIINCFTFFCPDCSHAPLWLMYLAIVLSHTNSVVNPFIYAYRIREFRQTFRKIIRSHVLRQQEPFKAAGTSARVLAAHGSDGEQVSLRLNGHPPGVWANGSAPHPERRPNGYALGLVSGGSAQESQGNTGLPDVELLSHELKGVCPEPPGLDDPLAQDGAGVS

Ki [nM] | SMILES
272 | NC1CCC(Nc2nc(NCC(c3ccccc3)c3ccccc3)c3ncn(C4CC(n5cccn5)C(O)C4O)c3n2)CC1 [Example 12, (1R,2S,3R,1S)-3-[2-(4-Amino-cyclohexylamino)-6-(2,2-diphenyl-ethylamino)-purin-9-yl]-5-pyrazol-1-yl-cyclopentane-1,2-diol]
43 | Cc1nnn([C@H]2C[C@@H](n3cnc4c(NCC(c5ccccc5)c5ccccc5)nc(N[C@@H]5CCNC5)nc43)[C@H](O)[C@@H]2O)n1 [Example 7, (1R,2S,3R,5S)-3-[6-(2,2-Diphenyl-ethylamino)-2-((R)-pyrrolidin-3-ylamino)-purin-9-yl]-5-(5-methyl-tetrazol-2-yl)-cyclopentane-1,2-diol trifluoroacetate]

Source: patent US8114877B2, “Organic compounds” (Novartis AG, priority 2005, dated 2012)
